Measurements as given in US11459293B2, “Compositions and methods of making expanded hematopoietic stem cells using derivatives of fluorene” (ImmuneBridge Inc., priority 2017, dated 2022).

Columns and labels:
[1] = tested on: hematopoietic stem cells derived from cord blood; experiment: Enhancement of hematopoietic stem cells from cord blood cultured with Compound 1.008, flow cytometry up to 19 days (Example 34); type: cell-based
Experimental: A frozen cord blood sample was thawed and gradually brought to room temperature. Thawed cord blood was incubated in an in vitro culture media of Alpha MEM without phenol red, 10% (v/v) heat inactivated fetal bovine serum (FBS). Four samples were tested: Base conditions, +SF Conditions, +1.008 Conditions, and +1.008/+ER conditions. The components included in each condition is described in Table 4. Each condition tested also included an antibiotic solution that includes penicillin, streptomycin, and amphotericin B to avoid contamination.
(§1) Cultures were incubated at 3% oxygen (controlled by nitrogen) and 5% CO2.
Small molecule components were added separately and fresh each time the media needs to be refreshed. Cytokines can be stored together. Media renewal should occur at least every few days.
On the days indicated varying amounts of the cell culture was removed for data analysis (flow cytometry using a BD FACS ARIA II) and to avoid overcrowding of cells. The culture volume was replenished with fresh media according to the conditions tested. The data reported accounts for the dilution factor introduced in this procedure.

[2] = tested on: CD34+ cells from non-mobilized peripheral blood; experiment: Long-term (21 days) expansion with Compound 1.010, non-mobilized peripheral blood (Example 36); type: cell-based, human; settings: Compound 1.010 8 μM
Experimental: CD34+ cells from non-mobilized peripheral blood were purchased from STEMCELL Technologies. Primary human CD34+ cells were isolated from blood samples using positive immunomagnetic separation techniques.
Cryspreserved CD34+ cell samples from each source were thawed and gradually brought to room temperature. Samples were washed then placed in overnight culture in StemSpan with 100 ng/ml each of FLT3L, TPO, SCF, and IL-6.
as §1
Twenty-four hours later (day 1), cells were counted and immunophenotyped (flow cytometry on an Invitrogen Attune NxT cytometer). […] Exact cell numbers dispensed per condition were quantified for later calculations of fold change from day 1.
Wells were analyzed at days 7 and 10, flasks were analyzed at 14 and 21 days of incubation. Cell numbers and phenotypes were quantified with flow cytometry. […] An additional seven days later (day 21 of culture), cell numbers and phenotypes were again quantified with flow cytometry. Cell numbers calculated at day 21 account for the passaging of the cells.
Conditions in 96-well plates were prepared in quadruplicate; conditions in flasks were prepared in duplicate. On the above-indicated number of days in culture, cells from wells or flasks were collected and phenotypes were analyzed (flow cytometry on an Invitrogen Attune NxT cytometer).

[3] = tested on: CD34+ cells isolated from donor peripheral blood (non-mobilized); experiment: Enhancement of hematopoietic stem cells from non-mobilized peripheral blood, flow cytometry, fold change days 2 to 7 (Example 33); type: cell-based; settings: 8 μM sample compound, normalized fold change days 2 to 7, 3% oxygen
Experimental: CD34+ cells were isolated from donor peripheral blood. Standard buffy coat separation using ficoll paque was performed. Cells were pelleted and incubated with unlabeled CD64 antibody. Cells then underwent negative depletion using biotinylated CD2, CD3, CD4, CD5, CD8, CD11b, CD14, CD16, CD19, CD20, CD45RA, CD56, CD235 (in some examples CD15, CD25 and other lineage specific antibodies may also be used). Cells which bind these antibodies are depleted using streptavidin beads. The enriched progenitor pool then undergoes cell sorting for CD34+.
Isolated CD34+ cells were incubated in an in vitro culture media of Alpha MEM without phenol red with 10% (v/v) heat inactivated fetal bovine serum (FBS). When testing compounds of Formula I, two internal controls were used: a positive control (+SF conditions) and a baseline control (i.e. basic conditions (“cytokines only”)). The media components and concentrations used for the compounds tested are described in Table 2. The culture also included an antibiotic solution that includes penicillin, streptomycin, and amphotericin B to avoid contamination. Controls were included because the amount of expansion in samples obtained varies from individual to individual. […]
Table 3, below, summarizes the relative expansive effect of Compound 1.001 to 1.023 (sample compounds) at the indicated concentration. […] It is calculated as shown below: […]

CC(C)(C)C(=O)Nc1ccc2c(c1)C(=O)c1cc(N)ccc1-2 [Compound 1.008, N-(7-amino-9-oxo-9H-fluoren-2-yl)pivalamide]
maintenance and expansion of hematopoietic stem cells in culture ([1]; +1.008 Conditions (250 nM), 19 days in culture): maintained and continue to expand
total number of CD34+, CD34+/CD133+, CD34+/CD133+/CD90+ and CD34+/CD133+/CD90+/CD38 low/− cells (flow cytometric cell counts) ([1]; FIG. 24B-E, versus Base and +SF conditions): increase
increase in CD34+ cells from day 2 ([1]; after 19 days in culture, Compound 1.008 250 nM, 3% oxygen, FIG. 25B): greater than 50 fold
increase in CD34+/CD133+ cells from day 2 ([1]; after 19 days in culture, Compound 1.008 250 nM, 3% oxygen, FIG. 25C): greater than 50 fold
increase in CD34+/CD133+/CD90+ cells from day 2 ([1]; after 19 days in culture, Compound 1.008 250 nM, 3% oxygen, FIG. 25D): ~20 fold
increase in CD34+/CD133+/CD90+/CD38low/− cells from day 2 ([1]; after 19 days in culture, Compound 1.008 250 nM, 3% oxygen, FIG. 25E): > 12 fold

CC(C)(C)C(=O)Nc1ccc2c(c1)C(O)c1ccccc1-2 (centres unmarked) [Compound 1.010]
expansion of CD34+ cells ([2]; fold change from day 1, up to 21 days in culture, 3% oxygen, FIG. 54B): greater than nine-fold
expansion compared with cytokines alone ([2]; up to 21 days): far surpasses

CC(C)(C)C(=O)Nc1ccc2c(c1)C(=O)CC2 [Compound 1.019]
CD90 effect (relative expansive effect on CD34+/CD133+/CD90+ cells) [3]: ++ (0.2 ≤ x < 0.55)
CD133 effect (relative expansive effect on CD34+/CD133+ cells) [3]: ++ (0.2 ≤ x < 0.55)

ER50891 [reference compound]
fold increase levels on addition of ER50891 to +1.008 conditions ([1]; ER50891 100 nM with Compound 1.008 250 nM, 19 days): even further improved
